# Data from US20240228542A1, “LYTIC DOMAIN FUSION CONSTRUCTS, CHECKPOINT INHIBITORS, AND METHODS OF MAKING AND USING SAME” (A28 Therapeutics Inc., priority 2020, published 2024).
# Columns and labels:
# [1] = system: EMT-6 murine mammary carcinoma; experiment: EMT-6 murine mammary carcinoma syngeneic model, tumor growth delay; assay type: in vivo, BALB/c mice; conditions: for median TTE: control 16.5 days
# Experimental: The present study consisted of six efficacy groups (n=10) and three sampling groups (n=5) of female BALB/c mice implanted with EMT-6 tumor cells (mean volume: 61-85 mm^3). Dosing was initiated on Day (D) 1 of the study, unless otherwise noted. […] Anti-CTLA-4 was administered i.p. at 100 μg/animal on Day 2 and 50 μg/animal on Day 5 and Day 8.
# Group 1 mice served as controls and received i.v. saline (vehicle), qod×to end. Group 2 received anti-CTLA-4. Group 3 received Phor 18-LHRH at 0.4 μg/animal qod×8 followed by 20 μg/animal qod to end (starting on Day 17). […] Group 5 received Phor 18-LHRH at 0.4 μg/animal q.o.d.×8 followed by 20 μg/animal qod to end (starting on Day 17) in combination with anti-CTLA-4.
# The study endpoint was a tumor volume of 2000 mm^3 or 45 days, whichever came first. Tumor measurements were taken twice weekly until D45 with individual animals exiting the study upon reaching the tumor volume endpoint.
# Efficacy was determined from tumor growth delay (TGD), the increase in median time-to-endpoint (TTE) in treated versus control mice, and from comparison of survival curves using logrank analysis. Response was additionally evaluated based on the number of study survivors, partial regression (PR) and complete regression (CR) responses, and logrank significance of differences in survival. Tolerability of the various treatments was assessed by body weight (BW) measurements and frequent observation for clinical symptoms and treatment-related (TR) side effects.
# Four sampling groups consisting of 5 animals each were included in this study: saline controls. […] Animals in these groups were sacrificed on day 17, tumors were excised, formalin fixed and paraffin embedded to obtain H&E stained sections for histological evaluation of the tumors. Tumor samples were collected for analysis and stained with hematoxylin & cosin for pathological evaluation.
# ID8 ovarian cancer cells = experiment: Cytokine and chemokine secretion by ID8 cells (array, RT-PCR, ELISA); assay type: cell-based, murine
# Experimental: Cytokine Array—Supernatant from cultured cells was stored at −20° C. for batch analyses to measure cytokines. The mouse cytokine array (R&D Systems, Inc.) was purchased and used to detect the secretion of 111 cytokines in the experiments groups. These Proteome Profiler Arrays were performed according to the manufacturer's protocol.
# The effect of EP-100 on cytokines and chemokines was analyzed using a proteome profiler murine cytokine array in the CD8^+ T cell activation in ID8 ovarian cancer cells. […] LIF and CXCL10 secretion were decreased after treatment with EP-100 for 4 hours. LDL receptor secretion was increased by EP-100 at 2 hours and 12 hours, while IL1α, CCL20, VEGF, and IL33 were secreted after EP-100 treatment (FIG. 19 B). Among the cytokines, IL33 inhibited tumor growth and modified the tumor microenvironment. Using RT-PCR and ELISA the induction of IL33 through EP-100 was analyzed. IL33 mRNA expression was increased in 30 minutes after EP-100 treatment, and secretion was increased after 2 hours of EP-100 treatment, and this effect continued through 12 hours (FIGS. 19C and 19D). […] To determine the IL33 role in the tumor microenvironment, we tested the IL33 effect on T cell differentiation in vitro. We isolated naïve CD4^+ T cells from mouse […], and further cultured for 5 days in CD3 and CD28, and mouse IL-2 containing media to differentiated CD8^+ T cell. LHRH-R mRNA expression and EP-100-induced cytoic effect was lower in both naïve T cells and CD8^+ T cells than in ID8 cells (FIGS. 20A and 20B).
# AN3-CA = experiment: Cytotoxicity in AN3-CA endometrial cancer cells; assay type: cell-based; conditions: AN3-CA endometrial cancer cell line; read-out: IC50 in Human Cancer Cell Lines
# Experimental: MDA-MB-435S.luc cells were grown in Leibovitz's L 15 medium, 10% fetal bovine serum, 0.01 mg/ml bovine insulin, 100 IU/ml penicillin, 100 microg/ml streptomycin. The cells were cultured in tight closed flasks. The incubations were conducted using 96 well plates at 10,000 cells per well. Cells were typically seeded into 96 well plates and media was replaced after 48 hours of incubation. Each assay was conducted at increasing concentrations of 0, 0.001, 0.01, 0.05, 0.1, 0.5, 1, 2, 5, 10 and 100 micromolar doses of lytic peptide-binding domain conjugate. Each lytic peptide-binding domain conjugate provided in lyophilized form and was freshly dissolved in saline and added to cells. The duration of incubation was typically 24 h, and cell viability assays were conducted using formazan conversion assays (MTT assay). Controls contained saline or 0.1% triton as reference for 0 and 100% cell death, respectively.
# To ascertain the IC50 of various fusion constructs on different human cancer cell lines compared to cisplatinum, IC50 of fusion constructs were evaluated as in Table 3.
# MDA-MB-435S xenograft = experiment: MDA-MB-435S xenograft, multiple dose regimen; assay type: in vivo, Nu/Nu mice; conditions: for tumor free mice: multiple intravenous injections
# Experimental: In order to determine the minimal effective dose necessary to reduce MDA-MB-435S xenograft weights in a multiple dose regimen, Nu/Nu female mice, outbred strain, age 8 weeks (Charles River), were injected (s.c.) into the interscapular region with a MDA-MB-435S (passage # 253)/Matrigel suspension (2×10^6 cells/mouse) as previously described above. Phor 18-LHRH (338613) (ID: 338613 lot #P080401) (0.002, and 0.2 mg/kg) were reconstituted in USP saline prior to dosing. The doses were given as a single bolus intravenous injection via lateral tail vein on days 15, 16, 17, 20, 21, 22, 23, 27, 28, 29, 30, 33, 34, 35, 36, 37, 38, 40, 41, 42 after tumor cell inoculation. Saline injections served as control groups.
# Each treatment group consisted of 16 mice. During the entire study tumor volumes were recorded twice weekly. Final necropsy was conducted on day 45 after tumor cell injection. […] due to occlusion of the tail vein in most mice. At study endpoint body weight, tumor weights were determined and fixed in phosphate buffered 10% formalin.
# [2] = Phor18-LHRH at 0.4 μg and 20 μg/animal (alone or with anti-CTLA-4)
# [3] = Phor18-LHRH at 10 μg and 60 μg/animal (alone or with anti-CTLA-4)
sequence,measurement,setting,value
KFAKFAKKFAKFAKKFAKQHWSYGLRPG [Phor18-LHRH],TGD,[1]; [2],6%
same,median TTE,[1]; [2],17.5 days
same,TGD,[1]; [3],5%
same,median TTE,[1]; [3],17.4 days
same,histological evaluation of tumors,[1]; animals sacrificed on day 17,inflammatory immune cell infiltration and necrosis
same,time to increased IL33 secretion,"ID8 ovarian cancer cells; ID8 cells, ELISA, continued through 12 hours",2 h
same,time to increased IL33 mRNA expression,"ID8 ovarian cancer cells; ID8 cells, RT-PCR",30 min
same,secretion of cytokines and chemokines (array),"ID8 ovarian cancer cells; ID8 cells, LIF, CXCL10, IL1α, CCL20, VEGF, IL33, LDL receptor",increased secretion of various molecules
same,IL33 secretion,"ID8 ovarian cancer cells; in vitro, FIG. 19D",IL33 secretion was increased by EP-100
same,IC50,AN3-CA,3.8 ± 0.08 µM
same,tumor free mice,MDA-MB-435S xenograft; 0.002 mg/kg,6/23
same,tumor free mice,MDA-MB-435S xenograft; 0.2 mg/kg,1/20
same,histological examination of H&E stained tumors,"MDA-MB-435S xenograft; 0.002 and 0.2 mg/kg, multiple injection regimen",eradication of tumor cells
